From US11471502B2, “Neuroprotective peptide” (UNIVERSITY COLLEGE CARDIFF C[…], priority 2017, dated 2022) come the findings set out here.

Experiment [1] deals with embryonic striatal cultures. In words: TUNEL apoptosis in neuronal embryonic striatal cultures. The format is cell-based, mouse. Here is the method: Data are expressed as Mean±SEM, n=5. Two-way ANOVA Bonferroni post-hoc comparison **p<0.01.
Embryonic cultures (E16) were prepared from striata of WT mice, plated onto poly-L-lysine coated glass and kept for 10 days in culture medium as previously described (Fasano et al, Biol Psy 2009). Two different concentrations (20 μM and 50 μM) of CPP-RB5 and CPP-SCR peptides were added to the culture medium by the third day and replaced every day. On day 11, cells were fixed with 4% PFA pH 7.4 in PBS for 10 min.
The DeadEnd Colorimetric TUNEL System (Promega) was used to detect apoptotic cells in cultured cells labelling the fragmented DNA of apoptotic cells using a modified TUNEL assay. TUNEL staining was realized with diaminobenzide (DAB) following the manufacture's protocol. Sample areas were digitized through a video camera (Nicon) connected to a Zeiss microscope using a 20× objective. 4 areas were counted and averaged for each plate.

Experiment [2] has as its system ERK-dependent nuclear signalling (histone H3) and cytoplasmic signalling (ribosomal protein S6). In words: Ex vivo acute slices, glutamate stimulation, immunofluorescence for phospho-acetyl histone H3 and phospho-S6. As to conditions: 50 μM peptide, glutamate 100 μM. It counts as cell-based, mouse. Here is the method:
a) RB5 peptide selectively promoted activation of ERK2. Acute striatal slices either pre-treated with Scramble (SCR) or RB5 peptide (50 μM) and then stimulated 10 minutes with glutamate (GLU) (100 μM) or vehicle were analysed in Western blot (left panel) and probed with anti phospho ERK antibodies (p44^ERK1 and p42^ERK2) and anti ERK1/2 antibody. GAPDH was used as loading control. […] No changes were detected in the total ERK1 and ERK2 levels. GAPDH was used as loading control. […] Mice injected with a single dose of CPP-SCR or CPP-RB5 peptides (20 mg/kg, i.p.) were rapidly perfused 1 h later and brains were dissected and further analysed for IHC and immunofluorescence. Representative photomicrographs of pERK1/2, pMSK, pAch3, pELK1 and c-Fos expression in the striatum. […] Two-way ANOVA Bonferroni post hoc comparison: one black star, p<0.05, two black stars, p<0.01, one white star, p<0.001. p) Dose response curve of RB5 peptide for ERK activation. 200 μm thick striatal slices were freshly prepared from 2-month old mice and transferred into a perfusion chamber for 1 h at 32° C. Slices were pre-treated with different doses of RB5 or scrambled control. After 1 h, slices for each dose was fixed in PFA 4% for 15 min. 18 μm cryo-sections were processed for immunohistochemistry with anti-phospho p44/p42 MAP kinase. Neuronal quantification was performed with ImageJ software by counting the number of phospho-ERK positive cells in each slice. The level of activation is expressed on the Y-axis as arbitrary units (AU). Doses are reported in a logarithmic scale (Log 10) on the X-axis. The EC50 was calculated using GraphPad Prism software.
Adult mice were anesthetized and decapitated. […]
Slides were placed in a humid chamber and 1 h after blocking in 5% normal goat serum and 0.1% Triton X-100 solution, they were incubated overnight at 4° C. with one of the following primary antibodies: anti-phospho-S6 ribosomal protein (Ser235/236) (1:200 Cell Signalling Technology, Danvers, Mass.), anti-phospho-S6 ribosomal protein (Ser240/244) (1:200 Cell Signalling Technology, Danvers, Mass.), anti-phospho (Ser10)-acetylated (Lys14) histone H3 (1:1000 (Millipore, Billerica, Mass.) or Cleaved Caspase 3 (1:200 Cell Signalling Technology, Danvers, Mass.) and anti-NeuN (1:1000 Millipore, Billerica, Mass.) followed by appropriate secondary antibodies. […] Neuronal quantification is performed with ImageJ software by counting phospho-S6 immunoreactive or pH3 neurons among NeuN positive neurons in each slide (n=10 for each experimental group). […]

For experiment [3], the system named is C57BL/6 mice treated with 3-NP. The experiment can be described thus: 3-Nitropropionic acid (3-NP) pharmacological mouse model of Huntington's disease. It counts as in vivo. As to conditions: 20 mg/kg i.p. twice a day, 3-NP 50 mg/kg once a day, 7 days. Here is the method: Importantly, this reduction resembled physiological condition (RB5 3-NP vs RB5 Saline p=0.85). Mean±SEM, n=10 each experimental group).
Before use, CCP-SCR and CPP-RB5 were diluted in PBS 1× and injected twice a day at 12 hr intervals (20 mg/kg). 3-NP was injected 1 h after peptides once a day for 7 consecutive days (50 mg/kg) in male C57B/6 mice. All drugs were administered by intraperitoneal (i.p.) injection in a volume of 10 ml/kg. The mice were euthanized 1 hr after the last peptide injection and transcardially perfused with buffered 4% PFA, and processed for immunohistochemistry. The DeadEnd Colorimetric TUNEL System (Promega) was used to detect apoptotic cells on tissue sections […] thick. For each animal three consecutive coronal sections were taken, mounted on glass slides and processed for immunohistochemical analysis according to the recommended procedures. For quantification, the number of positive neurons in each section was counted across the dorsolateral region of the striatum of both hemispheres and means values were calculated.
We set up a protocol in which male C57BL/6 mice were injected with CPP-SCR or CPP-RB5 peptides (20 mg/kg, i.p.) twice a day (every 12 h) for 7 days and 1 h after peptides injection they received one injection of 3-NP (50 mg/kg). At the end of treatment, animals were perfused and brains were prepared as for immunohistochemistry.

Regarding `CSCC[C@H](NC(=O)[C@H](CCC(=O)O)NC(=O)[C@@H](NC(=O)[C@H](CCC(=O)O)NC(=O)CNC(=O)[C@@H]1CCCN1C(=O)[C@@H](NC(=O)CNC(=O)[C@@H]1CCCN1C(=O)CNC(=O)[C@@H](NC(=O)CNC(=O)[C@H](CCC(=O)O)NC(=O)[C@@H](NC(=O)[C@H](CCCNC(=N)N)NC(=O)[C@H](CCCNC(=N)N)NC(=O)[C@@H]1CCCN1C(=O)[C@H](CCC(=O)O)NC(=O)CNC(=O)CNC(=O)CNC(=O)CNC(=O)CNC(=O)[C@H](CCC(N)=O)NC(=O)[C@@H]1CCCN1C(=O)[C@@H]1CCCN1C(=O)[C@H](CCCNC(=N)N)NC(=O)[C@H](CCCNC(=N)N)NC(=O)[C@H](CCCNC(=N)N)NC(=O)[C@H](CCC(N)=O)NC(=O)[C@H](CCCNC(=N)N)NC(=O)[C@H](CCCNC(=N)N)NC(=O)[C@H](CCCCN)NC(=O)[C@H](CCCCN)NC(=O)[C@H](CCCNC(=N)N)NC(=O)CNC(C)=O)[C@@H](C)O)C(C)C)C(C)C)C(C)C)C(=O)N[C@H](C(=O)N[C@@H](CCCCN)C(=O)NCC(=O)N[C@@H](CCC(N)=O)C(=O)N1CCC[C@H]1C(=O)N[C@@H](Cc1ccccc1)C(=O)N[C@@H](CC(=O)O)C(=O)N[C@@H](C(=O)O)C(C)C)C(C)C` [RB5], the “apoptotic levels (TUNEL apoptotic nuclei)” value in experiment [1] (higher dose (50 μM), 7 days, vs Scramble) is given as “significant reduction of apoptotic levels”. Moreover, in experiment [2], the “phospho (Ser10)-acetyl(Lys14)-histone-H3, nuclear ERK signalling” value is “promotes” and the “phospho-S6 ribosomal protein, cytosolic/cytoplasmic signalling” value is on record as “not activated”. Further, in experiment [3], the “Caspase-3 levels (striatum)” value is “diminished Caspase-3 levels” and the “apoptotic levels (TUNEL, striatum)” value is reported as “significant reduction of apoptotic levels”.

As for “GRKKRRQRRRPPQGGGGGEPRRTEGVGPGVPGEVEMVKGQPFDV (listed as Homo sapiens) [CPP-RB5]”, the “reduction of apoptosis compared to CPP-SCR values” in experiment [1] (50 μM, 7 consecutive days, TUNEL) came out at 32%. Also, in experiment [2], the “phospho (Ser10)-acetyl(Lys14)-histone-H3, nuclear ERK signalling” value is “massive intra-nuclear MAPKs substrate activation” and the “phospho-S6 ribosomal protein, cytosolic/cytoplasmic signalling” value is listed as “no effect”. Also, in experiment [3], the “Caspase-3 levels (striatum)” value is recorded as “reduce pre-apoptotic levels of Caspase 3 marker to control levels” and the “apoptotic levels (TUNEL, striatum)” value was “reducing apoptosis to control levels”.
